According to PubChem BioAssay AID330 (DTP/NCI, 2004):
Values joined by “and” are separate entries in the source; they are usually repeats but may differ in a detail not shown here. Identical values can stand only once. Inconclusive results and toxic doses are left out. The calls were made as follows: active = survival T/C of 150% or more; inactive = T/C below 125% in these data. Peptide text beside a SMILES is read from it. * marks the point of attachment. Cbz = O=C(OCc1ccccc1)*; OBn = c1ccc(CO*)cc1

Test system: P388 leukemia ip, CD2F1 mice, survival T/C
Experiment: NCI In Vivo Anticancer Drug Screen. Data for tumor model P388 Leukemia (intraperitoneal) in CD2F1 (CDF1) mice
Settings: endpoint: median survival time, higher = longer survival
Procedure, shortened: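 Mice carrying the transplanted tumor received test compound or vehicle. Survival was recorded in each group, and the value is the treated-group measurement divided by that of the vehicle-treated control group.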

[1] = dose: 60.0 mg/kg/injection, schedule: Q01DX005 (ip), vehicle: saline with Tween-80
[2] = dose: 120.0 mg/kg/injection, schedule: Q01DX005 (ip), vehicle: saline with Tween-80
[3] = dose: 240.0 mg/kg/injection, schedule: Q01DX005 (ip), vehicle: saline with Tween-80
[4] = dose: 50.0 mg/kg/injection, schedule: Q01DX009 (ip), vehicle: saline with Tween-80
[5] = dose: 100.0 mg/kg/injection, schedule: Q01DX009 (ip), vehicle: saline with Tween-80
[6] = dose: 200.0 mg/kg/injection, schedule: Q01DX009 (ip), vehicle: saline with Tween-80
[7] = dose: 60.0 mg/kg/injection, schedule: Q01DX005 (ip), vehicle: saline
[8] = dose: 120.0 mg/kg/injection, schedule: Q01DX005 (ip), vehicle: saline
[9] = dose: 240.0 mg/kg/injection, schedule: Q01DX005 (ip), vehicle: saline
[10] = dose: 50.0 mg/kg/injection, schedule: Q01DX005 (ip), vehicle: saline with Tween-80
[11] = dose: 100.0 mg/kg/injection, schedule: Q01DX005 (ip), vehicle: saline with Tween-80
[12] = dose: 12.5 mg/kg/injection, schedule: Q01DX005 (ip), vehicle: Klucel (hydroxypropylcellulose) (HPC)
[13] = dose: 25.0 mg/kg/injection, schedule: Q01DX005 (ip), vehicle: Klucel (hydroxypropylcellulose) (HPC)
[14] = dose: 50.0 mg/kg/injection, schedule: Q01DX005 (ip), vehicle: Klucel (hydroxypropylcellulose) (HPC)
[15] = dose: 100.0 mg/kg/injection, schedule: Q01DX005 (ip), vehicle: Klucel (hydroxypropylcellulose) (HPC)
[16] = dose: 200.0 mg/kg/injection, schedule: Q01DX005 (ip), vehicle: Klucel (hydroxypropylcellulose) (HPC)

Measured: T/C

O=C(NC1=NN(c2ccccc2)C(=O)C1)c1ccccc1
inactive: dose: 9.37 mg/kg/injection, schedule: Q01DX009 (ip), vehicle: saline 101 % of control | dose: 18.75 mg/kg/injection, schedule: Q01DX009 (ip), vehicle: saline 110 % of control | dose: 37.5 mg/kg/injection, schedule: Q01DX009 (ip), vehicle: saline 98 % of control

O=c1cnc(=O)[nH][nH]1
inactive: [1] 103 % of control | [2] 91 % of control | [3] 93 % of control

CCOc1cccc(Cl)n1
inactive: [4] 104 % of control | [5] 100 % of control | [6] 90 % of control

O=[N+]([O-])c1cnc(Sc2ncc([N+](=O)[O-])cn2)nc1
inactive: [7] 99 % of control | [8] 102 % of control | [9] 99 % of control

CC(=O)c1c(CO[N+](=O)[O-])n([O-])c2ccccc2[n+]1=O
inactive: [1] 106 % of control | [2] 104 % of control

Cc1ccc(C(=O)/C(N)=C\c2c[nH]c3ccccc23)cc1
inactive: dose: 100.0 mg/kg/injection, schedule: Q01DX001 (ip), vehicle: saline with Tween-80 104 % of control | dose: 200.0 mg/kg/injection, schedule: Q01DX001 (ip), vehicle: saline with Tween-80 100 % of control | dose: 400.0 mg/kg/injection, schedule: Q01DX001 (ip), vehicle: saline with Tween-80 98 % of control

CC(C)(F)C(N)C(=O)O (stereo not given)
inactive: [7] 101 % of control | [8] 103 % of control | [9] 100 % of control

O=C(CC(O)(C(F)(F)F)C(F)(F)F)c1cc(CC(=O)C(O)(C(F)(F)F)C(F)(F)F)cc(CC(=O)C(O)(C(F)(F)F)C(F)(F)F)c1
inactive: dose: 25.0 mg/kg/injection, schedule: Q01DX009 (ip), vehicle: saline with Tween-80 97 % of control | [4] 103 % of control | [5] 100 % of control | [6] 105 % of control | dose: 400.0 mg/kg/injection, schedule: Q01DX009 (ip), vehicle: saline with Tween-80 115 % of control

C(=N\NC1=NCCN1)/c1c[nH]c2ccccc12
inactive: [10] 101 % of control | [11] 97 % of control

NC12CC3CC(CC(C3)C1)C2
inactive: dose: 25.0 mg/kg/injection, schedule: Q01DX005 (ip), vehicle: saline with Tween-80 97 % of control | [10] 92 % of control | [11] 88 % of control

c1cc(CSC2=NCCN2)c2cccc(CSC3=NCCN3)c2c1
inactive: [12] 103 % of control | [13] 107 % of control | [14] 103 % of control and 112 % of control

CC1=C(O)C(=O)C=C2C1=CC=C1[C@@]2(C)CC[C@@]2(C)[C@@H]3C[C@](C)(C(=O)O)CC[C@]3(C)CC[C@]12C
inactive: dose: 0.19 mg/kg/injection, schedule: Q01DX009 (ip), vehicle: saline 101 % of control | dose: 0.39 mg/kg/injection, schedule: Q01DX009 (ip), vehicle: saline 101 % of control | dose: 0.78 mg/kg/injection, schedule: Q01DX009 (ip), vehicle: saline 97 % of control | dose: 1.56 mg/kg/injection, schedule: Q01DX009 (ip), vehicle: saline 87 % of control | dose: 3.12 mg/kg/injection, schedule: Q01DX009 (ip), vehicle: suspension in saline 91 % of control

CCN(CC)c1ccc(C(=N)c2ccc(N(C)C)cc2)cc1
inactive: [12] 99 % of control | [13] 99 % of control | [14] 90 % of control and 92 % of control

O=C(NC(CO)C(=O)N1CCCC1C(=O)OCc1ccccc1)OCc1ccccc1 (stereo not drawn) (Cbz-Ser-Pro-OBn; configuration not given here)
inactive: [14] 96 % of control | [15] 93 % of control | [16] 92 % of control

CCN(CC)Cc1c(C)[nH]c2ccc(NC(C)=O)cc2c1=O
inactive: [4] 116 % of control | [5] 114 % of control

CCc1nc(N)nc(N)c1-c1ccc(N2CCNCC2)cc1
inactive: [14] 96 % of control | [15] 95 % of control | [16] 101 % of control

C/C(=N\N=C(/[Se])N1CCC1)c1ccccn1
inactive: dose: 12.5 mg/kg/injection, schedule: Q04DX003 (ip), vehicle: Klucel (hydroxypropylcellulose) (HPC) 106 % of control | dose: 25.0 mg/kg/injection, schedule: Q04DX003 (ip), vehicle: Klucel (hydroxypropylcellulose) (HPC) 104 % of control

COc1ccc(N2CC[N+](c3ccc(N(C)C)cc3)=C2C2=[N+](c3ccc(N(C)C)cc3)CCN2c2ccc(OC)cc2)cc1
inactive: dose: 12.5 mg/kg/injection, schedule: Q01DX009 (ip), vehicle: Klucel (hydroxypropylcellulose) (HPC) 91 % of control | dose: 25.0 mg/kg/injection, schedule: Q01DX009 (ip), vehicle: Klucel (hydroxypropylcellulose) (HPC) 91 % of control | dose: 50.0 mg/kg/injection, schedule: Q01DX009 (ip), vehicle: Klucel (hydroxypropylcellulose) (HPC) 91 % of control

CCOC(=O)C1=C(O)c2ccccc2S(=O)(=O)N1C (tested in a mixture with another compound)
inactive: [1] 98 % of control | [2] 107 % of control | [3] 97 % of control

O=[n+]1c2c(n([O-])c3ccccc31)C(Br)CCCC2Br (stereo not given)
inactive: [1] 100 % of control | [2] 95 % of control | [3] 89 % of control

COc1ccc2cc1Oc1ccc(cc1)C[C@H]1c3cc(c(OC)cc3CCN1C)Oc1c(OC)c(OC)cc3c1[C@H](C2)N(C)CC3
inactive: dose: 12.5 mg/kg/injection, schedule: Q01DX009 (ip), vehicle: other 94 % of control and 95 % of control | dose: 25.0 mg/kg/injection, schedule: Q01DX009 (ip), vehicle: other 100 % of control and 97 % of control | dose: 25.0 mg/kg/injection, schedule: Q04DX003 (ip), vehicle: suspension in saline 98 % of control | dose: 50.0 mg/kg/injection, schedule: Q01DX009 (ip), vehicle: other 100 % of control and 97 % of control | dose: 50.0 mg/kg/injection, schedule: Q04DX003 (ip), vehicle: suspension in saline 88 % of control | dose: 100.0 mg/kg/injection, schedule: Q01DX009 (ip), vehicle: other 103 % of control | dose: 100.0 mg/kg/injection, schedule: Q04DX003 (ip), vehicle: suspension in saline 89 % of control | dose: 200.0 mg/kg/injection, schedule: Q04DX003 (ip), vehicle: suspension in saline 87 % of control

CN(C)c1ccc(C=Nc2ccc3c4c(cccc24)-c2ccccc2-3)cc1
inactive: [4] 93 % of control | [5] 86 % of control | [6] 89 % of control

Nc1cc(S(=O)(=O)F)ccc1Cl
inactive: dose: 100.0 mg/kg/injection, schedule: Q04DX003 (ip), vehicle: saline with Tween-80 100 % of control | dose: 200.0 mg/kg/injection, schedule: Q04DX003 (ip), vehicle: saline with Tween-80 106 % of control

O=C1CCCc2ccc([N+](=O)[O-])cc21
inactive: dose: 25.0 mg/kg/injection, schedule: Q01DX009 (ip), vehicle: suspension in saline 98 % of control | dose: 50.0 mg/kg/injection, schedule: Q01DX009 (ip), vehicle: suspension in saline 98 % of control | dose: 100.0 mg/kg/injection, schedule: Q01DX009 (ip), vehicle: suspension in saline 93 % of control | dose: 200.0 mg/kg/injection, schedule: Q01DX009 (ip), vehicle: suspension in saline 93 % of control

CC(C)C(NC(=O)C(Cl)Cl)C(=O)O (stereo not given)
inactive: [14] 96 % of control | [15] 94 % of control | [16] 96 % of control
